Experimental data: ChEMBL document CHEMBL1641460, “Potent and selective thiophene urea-templated inhibitors of S6K” (Bioorg Med Chem Lett, 2011)

How the values were obtained:
[1] = molecular target: Aurora kinase A (Homo sapiens) (UniProt O14965); test: Inhibition of aurora A at 1 uM
[2] = molecular target: Cyclin-dependent kinase 2 (Homo sapiens) (UniProt P24941); test: Inhibition of CDK2 at 1 uM
CYP3A4 = CYP3A4 (Homo sapiens, UniProt P08684); test: Inhibition of CYP3A4 at 3 uM by LC/MS/MS analysis; type: ADME
[3] = molecular target: Ribosomal protein S6 kinase beta-1 (Homo sapiens, UniProt P23443); test: Inhibition of S6K1
[4] = molecular target: Aurora kinase A (Homo sapiens) (UniProt O14965); test: Inhibition of aurora A at 10 uM
[5] = molecular target: RAC-alpha serine/threonine-protein kinase (Homo sapiens) (UniProt P31749); test: Inhibition of AKT1 at 1 uM
[6] = molecular target: Ephrin type-A receptor 2 (Homo sapiens) (UniProt P29317); test: Inhibition of EPHA2 at 1 uM
[7] = molecular target: Mitogen-activated protein kinase 1 (Homo sapiens) (UniProt P28482); test: Inhibition of MAPK1 at 10 uM
[8] = molecular target: Rho-associated protein kinase 1 (Homo sapiens) (UniProt Q13464); test: Inhibition of ROCK1 at 10 uM
[9] = molecular target: Protein kinase C zeta type (Homo sapiens) (UniProt Q05513); test: Inhibition of PRKCZ at 10 uM
[10] = molecular target: Ephrin type-A receptor 2 (Homo sapiens) (UniProt P29317); test: Inhibition of EPHA2 at 10 uM
[11] = molecular target: Serine/threonine-protein kinase PAK 4 (Homo sapiens) (UniProt O96013); test: Inhibition of PAK4 at 10 uM
[12] = molecular target: Tyrosine-protein kinase JAK3 (Homo sapiens) (UniProt P52333); test: Inhibition of JAK3 at 10 uM
[13] = molecular target: Serine/threonine-protein kinase 3 (Homo sapiens) (UniProt Q13188); test: Inhibition of STK3 at 1 uM
[14] = molecular target: RAC-alpha serine/threonine-protein kinase (Homo sapiens) (UniProt P31749); test: Inhibition of AKT1 at 10 uM
[15] = molecular target: Myosin light chain kinase 2, skeletal/cardiac muscle (Homo sapiens) (UniProt Q9H1R3); test: Inhibition of MYLK2 at 10 uM
[16] = molecular target: Mitogen-activated protein kinase 1 (Homo sapiens) (UniProt P28482); test: Inhibition of MAPK1 at 1 uM
[17] = molecular target: Inhibitor of nuclear factor kappa-B kinase subunit beta (Homo sapiens) (UniProt O14920); test: Inhibition of IKBKB at 1 uM
[18] = molecular target: Hepatocyte growth factor receptor (Homo sapiens) (UniProt P08581); test: Inhibition of MET at 10 uM
[19] = molecular target: Casein kinase I isoform delta (Homo sapiens) (UniProt P48730); test: Inhibition of CSNK1D at 1 uM
[20] = molecular target: Insulin receptor (Homo sapiens) (UniProt P06213); test: Inhibition of INSR at 10 uM
[21] = molecular target: MAP kinase-activated protein kinase 2 (Homo sapiens) (UniProt P49137); test: Inhibition of MAPKAPK2 at 1 uM
[22] = molecular target: Epidermal growth factor receptor (Homo sapiens) (UniProt P00533); test: Inhibition of EGFR at 1 uM
[23] = molecular target: Epidermal growth factor receptor (Homo sapiens) (UniProt P00533); test: Inhibition of EGFR at 10 uM
[24] = molecular target: Cyclin-dependent kinase 2 (Homo sapiens) (UniProt P24941); test: Inhibition of CDK2 at 10 uM
[25] = molecular target: Casein kinase I isoform delta (Homo sapiens) (UniProt P48730); test: Inhibition of CSNK1D at 10 uM
[26] = molecular target: Serine/threonine-protein kinase TAO3 (Homo sapiens) (UniProt Q9H2K8); test: Inhibition of TAOK3 at 10 uM
[27] = molecular target: Calcium/calmodulin-dependent protein kinase type 1 (Homo sapiens) (UniProt Q14012); test: Inhibition of CAMK1 at 10 uM
[28] = molecular target: Insulin receptor (Homo sapiens) (UniProt P06213); test: Inhibition of INSR at 1 uM
[29] = molecular target: Dual specificity protein kinase CLK1 (Homo sapiens) (UniProt P49759); test: Inhibition of CLK1 at 1 uM
[30] = molecular target: Casein kinase II subunit alpha (Homo sapiens) (UniProt P68400); test: Inhibition of CSNK2A1 at 1 uM
CYP2D6 = CYP2D6 (Homo sapiens, UniProt P10635); test: Inhibition of CYP2D6 at 3 uM by LC/MS/MS analysis; type: ADME
[31] = molecular target: Tyrosine-protein kinase BTK (Homo sapiens) (UniProt Q06187); test: Inhibition of BTK at 1 uM
[32] = molecular target: Protein kinase C beta type (Homo sapiens) (UniProt P05771); test: Inhibition of PRKCB at 10 uM
[33] = molecular target: Serine/threonine-protein kinase Nek2 (Homo sapiens) (UniProt P51955); test: Inhibition of NEK2 at 1 uM
[34] = molecular target: Mitogen-activated protein kinase 14 (Homo sapiens) (UniProt Q16539); test: Inhibition of MAPK14 at 1 uM
[35] = molecular target: Glycogen synthase kinase-3 beta (Homo sapiens) (UniProt P49841); test: Inhibition of GSK3b at 10 uM
[36] = molecular target: Serine/threonine-protein kinase Chk1 (Homo sapiens) (UniProt O14757); test: Inhibition of CHEK1 at 10 uM
[37] = molecular target: Serine/threonine-protein kinase TAO3 (Homo sapiens) (UniProt Q9H2K8); test: Inhibition of TAOK3 at 1 uM
[38] = molecular target: Tyrosine-protein kinase Lck (Homo sapiens) (UniProt P06239); test: Inhibition of LCK at 10 uM
[39] = molecular target: cAMP-dependent protein kinase catalytic subunit alpha (Homo sapiens) (UniProt P17612); test: Inhibition of PRKACA at 10 uM
[40] = molecular target: Dual specificity protein kinase CLK1 (Homo sapiens) (UniProt P49759); test: Inhibition of CLK1 at 10 uM
[41] = molecular target: Tyrosine-protein kinase JAK3 (Homo sapiens) (UniProt P52333); test: Inhibition of JAK3 at 1 uM
[42] = molecular target: Tyrosine-protein kinase ABL1 (Homo sapiens) (UniProt P00519); test: Inhibition of ABL1 at 10 uM
[43] = molecular target: Serine/threonine-protein kinase MARK1 (Homo sapiens) (UniProt Q9P0L2); test: Inhibition of MARK1 at 10 uM
[44] = molecular target: MAP kinase-activated protein kinase 2 (Homo sapiens) (UniProt P49137); test: Inhibition of MAPKAPK2 at 10 uM
[45] = molecular target: Protein kinase C beta type (Homo sapiens) (UniProt P05771); test: Inhibition of PRKCB at 1 uM

Sequence of Protein kinase C beta type (Homo sapiens) (P05771 2-671 limits assumed): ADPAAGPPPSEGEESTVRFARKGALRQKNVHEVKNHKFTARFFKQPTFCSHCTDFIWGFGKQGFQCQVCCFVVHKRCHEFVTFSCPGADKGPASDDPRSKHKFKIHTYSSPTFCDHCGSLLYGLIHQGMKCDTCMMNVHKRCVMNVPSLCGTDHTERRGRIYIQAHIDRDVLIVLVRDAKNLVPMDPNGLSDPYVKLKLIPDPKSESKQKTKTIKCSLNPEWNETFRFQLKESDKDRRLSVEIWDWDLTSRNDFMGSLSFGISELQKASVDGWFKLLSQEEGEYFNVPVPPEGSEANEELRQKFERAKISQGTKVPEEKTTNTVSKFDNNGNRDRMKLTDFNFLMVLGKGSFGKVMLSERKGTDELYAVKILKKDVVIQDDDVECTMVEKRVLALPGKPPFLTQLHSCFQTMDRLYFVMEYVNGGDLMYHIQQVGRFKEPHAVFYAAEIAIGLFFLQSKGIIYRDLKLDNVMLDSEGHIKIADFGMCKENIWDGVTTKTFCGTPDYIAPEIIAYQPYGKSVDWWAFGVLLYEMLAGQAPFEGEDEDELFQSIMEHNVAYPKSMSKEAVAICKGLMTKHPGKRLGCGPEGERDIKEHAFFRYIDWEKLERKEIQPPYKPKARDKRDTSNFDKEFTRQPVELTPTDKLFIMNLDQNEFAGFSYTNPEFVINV
Sequence of MAP kinase-activated protein kinase 2 (Homo sapiens) (P49137 whole entry, looked up): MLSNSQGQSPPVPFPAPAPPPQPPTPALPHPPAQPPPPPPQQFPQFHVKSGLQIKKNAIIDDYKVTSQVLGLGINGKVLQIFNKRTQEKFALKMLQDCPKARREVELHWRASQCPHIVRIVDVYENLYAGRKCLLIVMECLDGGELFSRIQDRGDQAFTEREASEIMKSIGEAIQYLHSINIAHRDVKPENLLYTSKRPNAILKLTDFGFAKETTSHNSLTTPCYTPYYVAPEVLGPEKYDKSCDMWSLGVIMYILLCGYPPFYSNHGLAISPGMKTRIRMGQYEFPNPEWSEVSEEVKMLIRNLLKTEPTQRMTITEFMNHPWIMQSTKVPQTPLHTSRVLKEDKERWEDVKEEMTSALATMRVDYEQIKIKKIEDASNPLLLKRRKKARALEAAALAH
Sequence of Mitogen-activated protein kinase 1 (Homo sapiens) (P28482 whole entry): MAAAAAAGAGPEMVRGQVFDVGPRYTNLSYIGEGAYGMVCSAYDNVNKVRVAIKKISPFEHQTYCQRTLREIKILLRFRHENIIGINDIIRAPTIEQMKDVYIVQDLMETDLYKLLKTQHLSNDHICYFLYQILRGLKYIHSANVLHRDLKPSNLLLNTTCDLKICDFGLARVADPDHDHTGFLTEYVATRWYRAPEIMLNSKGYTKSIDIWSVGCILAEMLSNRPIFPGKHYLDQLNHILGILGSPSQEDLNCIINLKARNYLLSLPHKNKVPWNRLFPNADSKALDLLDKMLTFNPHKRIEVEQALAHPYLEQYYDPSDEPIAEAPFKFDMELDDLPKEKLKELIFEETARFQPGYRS
Sequence of Dual specificity protein kinase CLK1 (Homo sapiens) (P49759 whole entry, looked up): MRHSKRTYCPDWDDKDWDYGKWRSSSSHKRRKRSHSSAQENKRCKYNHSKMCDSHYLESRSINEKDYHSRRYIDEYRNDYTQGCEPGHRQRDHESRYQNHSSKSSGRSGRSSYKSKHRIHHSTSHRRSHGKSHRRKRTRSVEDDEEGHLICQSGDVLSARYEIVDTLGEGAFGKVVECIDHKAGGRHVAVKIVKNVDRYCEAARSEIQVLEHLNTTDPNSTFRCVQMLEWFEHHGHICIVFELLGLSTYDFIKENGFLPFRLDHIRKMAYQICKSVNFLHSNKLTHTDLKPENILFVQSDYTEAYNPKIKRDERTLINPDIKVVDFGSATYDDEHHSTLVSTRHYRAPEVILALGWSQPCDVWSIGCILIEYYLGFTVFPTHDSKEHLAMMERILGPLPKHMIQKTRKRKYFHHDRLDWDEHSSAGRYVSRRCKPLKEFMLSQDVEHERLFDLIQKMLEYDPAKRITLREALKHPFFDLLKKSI
Sequence of Aurora kinase A (Homo sapiens) (O14965 whole entry): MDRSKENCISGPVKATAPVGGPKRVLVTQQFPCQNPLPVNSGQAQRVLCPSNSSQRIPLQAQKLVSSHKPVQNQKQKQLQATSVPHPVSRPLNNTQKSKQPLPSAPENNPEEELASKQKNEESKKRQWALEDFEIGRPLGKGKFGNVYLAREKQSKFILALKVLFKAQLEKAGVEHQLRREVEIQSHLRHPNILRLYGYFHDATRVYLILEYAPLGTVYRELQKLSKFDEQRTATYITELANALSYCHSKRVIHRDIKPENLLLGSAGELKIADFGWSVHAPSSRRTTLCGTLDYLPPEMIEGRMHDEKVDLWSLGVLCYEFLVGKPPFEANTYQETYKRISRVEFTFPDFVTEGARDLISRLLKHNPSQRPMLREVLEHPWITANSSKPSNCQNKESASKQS
Sequence of Serine/threonine-protein kinase TAO3 (Homo sapiens) (Q9H2K8 whole entry): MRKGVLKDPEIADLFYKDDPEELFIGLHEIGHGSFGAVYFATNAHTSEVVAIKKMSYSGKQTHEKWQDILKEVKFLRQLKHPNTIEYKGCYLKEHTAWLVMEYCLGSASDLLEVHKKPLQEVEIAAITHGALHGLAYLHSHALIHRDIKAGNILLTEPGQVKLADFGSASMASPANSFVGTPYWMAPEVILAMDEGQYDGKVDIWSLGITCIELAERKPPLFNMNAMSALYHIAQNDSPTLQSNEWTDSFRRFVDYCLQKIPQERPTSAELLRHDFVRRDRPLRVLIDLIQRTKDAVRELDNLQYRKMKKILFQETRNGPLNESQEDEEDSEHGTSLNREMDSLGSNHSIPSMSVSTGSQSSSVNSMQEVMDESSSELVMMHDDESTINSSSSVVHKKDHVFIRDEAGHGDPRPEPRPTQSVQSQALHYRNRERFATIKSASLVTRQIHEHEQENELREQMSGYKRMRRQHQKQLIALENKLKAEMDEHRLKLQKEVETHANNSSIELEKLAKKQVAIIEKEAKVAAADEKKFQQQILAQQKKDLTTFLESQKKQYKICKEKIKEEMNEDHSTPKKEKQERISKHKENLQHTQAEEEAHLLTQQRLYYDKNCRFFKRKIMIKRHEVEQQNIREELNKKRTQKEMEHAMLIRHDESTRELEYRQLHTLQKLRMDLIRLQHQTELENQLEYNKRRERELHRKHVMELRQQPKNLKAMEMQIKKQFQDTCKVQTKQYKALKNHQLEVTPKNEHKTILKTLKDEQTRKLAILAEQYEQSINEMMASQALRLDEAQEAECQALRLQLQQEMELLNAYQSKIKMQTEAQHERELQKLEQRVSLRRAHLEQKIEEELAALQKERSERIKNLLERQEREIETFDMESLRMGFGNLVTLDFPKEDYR
Sequence of Tyrosine-protein kinase JAK3 (Homo sapiens) (P52333 whole entry, looked up): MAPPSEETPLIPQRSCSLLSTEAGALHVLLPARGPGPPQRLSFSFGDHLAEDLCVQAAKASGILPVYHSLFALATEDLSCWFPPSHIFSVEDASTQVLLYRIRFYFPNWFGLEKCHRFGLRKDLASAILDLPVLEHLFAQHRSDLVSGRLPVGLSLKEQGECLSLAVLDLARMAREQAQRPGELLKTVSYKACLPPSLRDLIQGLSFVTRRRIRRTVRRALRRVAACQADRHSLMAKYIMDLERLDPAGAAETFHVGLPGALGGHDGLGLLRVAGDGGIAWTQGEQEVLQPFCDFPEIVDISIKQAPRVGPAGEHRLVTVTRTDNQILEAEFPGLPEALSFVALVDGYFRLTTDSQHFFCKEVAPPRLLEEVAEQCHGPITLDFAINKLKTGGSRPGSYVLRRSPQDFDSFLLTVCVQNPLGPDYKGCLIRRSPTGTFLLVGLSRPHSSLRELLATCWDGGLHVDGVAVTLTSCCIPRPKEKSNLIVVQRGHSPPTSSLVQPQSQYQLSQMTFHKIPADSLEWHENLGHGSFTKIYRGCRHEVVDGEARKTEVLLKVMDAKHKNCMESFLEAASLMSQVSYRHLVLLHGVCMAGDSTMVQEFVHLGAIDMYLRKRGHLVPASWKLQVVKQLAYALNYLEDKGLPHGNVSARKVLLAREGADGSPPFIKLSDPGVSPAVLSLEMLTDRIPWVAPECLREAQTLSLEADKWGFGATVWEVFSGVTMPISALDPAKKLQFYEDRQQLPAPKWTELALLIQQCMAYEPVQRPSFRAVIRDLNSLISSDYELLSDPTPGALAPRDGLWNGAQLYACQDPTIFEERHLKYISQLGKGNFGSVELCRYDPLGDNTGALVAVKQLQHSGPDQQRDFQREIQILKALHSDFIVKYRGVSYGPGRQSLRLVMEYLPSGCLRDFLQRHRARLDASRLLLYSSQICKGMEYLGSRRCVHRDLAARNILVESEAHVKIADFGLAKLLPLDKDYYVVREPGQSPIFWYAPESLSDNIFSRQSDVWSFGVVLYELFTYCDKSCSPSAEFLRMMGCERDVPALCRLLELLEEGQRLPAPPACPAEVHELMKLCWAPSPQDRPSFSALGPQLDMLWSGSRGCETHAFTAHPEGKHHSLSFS
Sequence of RAC-alpha serine/threonine-protein kinase (Homo sapiens) (P31749 whole entry): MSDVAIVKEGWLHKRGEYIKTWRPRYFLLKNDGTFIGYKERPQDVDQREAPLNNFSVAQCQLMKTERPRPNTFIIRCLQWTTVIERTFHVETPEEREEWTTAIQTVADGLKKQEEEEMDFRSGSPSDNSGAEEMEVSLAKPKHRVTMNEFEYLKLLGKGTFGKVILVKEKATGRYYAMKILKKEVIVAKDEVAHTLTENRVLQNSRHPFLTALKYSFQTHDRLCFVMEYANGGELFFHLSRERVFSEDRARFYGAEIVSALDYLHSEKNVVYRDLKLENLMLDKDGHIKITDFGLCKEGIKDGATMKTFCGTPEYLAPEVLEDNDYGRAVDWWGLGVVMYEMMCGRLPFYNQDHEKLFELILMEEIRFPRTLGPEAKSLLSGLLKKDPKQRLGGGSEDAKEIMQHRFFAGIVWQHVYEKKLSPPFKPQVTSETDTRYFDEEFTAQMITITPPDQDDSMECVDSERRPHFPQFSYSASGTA

CC(C)(C)c1cc(C(=O)O)c(NC(=O)Nc2ccc3[nH]ncc3c2)s1
inhibition [1]: 0%
inhibition [2]: 10%
inhibition at 3 µM (CYP3A4): 0%
IC50 [3]: 0.052 µM
inhibition [4]: 0%
inhibition [5]: 0%
inhibition [6]: 10%
inhibition [7]: 10%
inhibition [8]: 10%
inhibition [9]: 20%
inhibition [10]: 10%
inhibition [11]: 0%
inhibition [12]: 40%
inhibition [13]: 0%
inhibition [14]: 0%
inhibition [15]: 10%
inhibition [16]: 10%
inhibition [17]: 10%
inhibition [18]: 0%
inhibition [19]: 20%
inhibition [20]: 0%
inhibition [21]: 10%
inhibition [22]: 10%
inhibition [23]: 10%
inhibition [24]: 10%
inhibition [25]: 20%
inhibition [26]: 10%
inhibition [27]: 10%
inhibition [28]: 0%
inhibition [29]: 10%
inhibition [30]: 30%
inhibition at 3 µM (CYP2D6): 0%
inhibition [31]: 0%
inhibition [32]: 10%
inhibition [33]: 10%
inhibition [34]: 10%
inhibition [35]: 10%
inhibition [36]: 10%
inhibition [37]: 10%
inhibition [38]: 0%
inhibition [39]: 10%
inhibition [40]: 10%
inhibition [41]: 40%
inhibition [42]: 0%
inhibition [43]: 20%
inhibition [44]: 10%
inhibition [45]: 10%
